Source: patent US20140274992A1, “CEFTOLOZANE PHARMACEUTICAL COMPOSITIONS” (Cubist Pharmaceuticals, Inc., priority 2013, published 2014)

Assay: Intrinsic pH of ceftolozane in solution
Type: physicochemical
Details: solution (2%)
Description: A formulation close to physiologic pH was targeted. This necessitates an alkalizing agent due to intrinsic pH 1.92 of ceftolozane in solution (2%). The initial study of alkalizing agents included sodium hydroxide, L-arginine, tris, sodium bicarbonate, meglumine, diethanolamine, and triethanolamine. Samples containing 100 mg ceftolozane sulfate, 22.9 mg sodium chloride, 200 mg maltose, and 2 mg citric acid anhydrous were prepared and adjusted to about pH 4. The samples were lyophilized and powders stored at 70° C. for 3 days, 60° C. for 3, 6 and 9 days and at 40° C. for one month. The stored samples were then analyzed for ceftolozane content.

Cn1c(N)c(NC(=O)NCCN)c[n+]1CC1=C(C(=O)[O-])N2C(=O)[C@@H](NC(=O)/C(=N\OC(C)(C)C(=O)O)c3nsc(N)n3)[C@H]2SC1 [ceftolozane]
intrinsic pH of ceftolozane in solution: 1.92
